Values joined by “and” are separate entries in the source; they are usually repeats but may differ in a detail not shown here. Equal entries are not always repeated.
What was measured:
PD-L1 = target: T1, PD-L1 (Homo sapiens, UniProt Q9NZQ7); assay: Real-time radioligand binding (LigandTracer) on PC3 PD-L1 cells; conditions: for Kd: real-time binding; for fold change of real-time binding affinity in presence vs absence of BSA: in either direction
T1 construct: expressed in transfected cells; host or cells: PC3 cells (human prostate carcinoma), stably transduced
T1 sequence (Q9NZQ7 19-290): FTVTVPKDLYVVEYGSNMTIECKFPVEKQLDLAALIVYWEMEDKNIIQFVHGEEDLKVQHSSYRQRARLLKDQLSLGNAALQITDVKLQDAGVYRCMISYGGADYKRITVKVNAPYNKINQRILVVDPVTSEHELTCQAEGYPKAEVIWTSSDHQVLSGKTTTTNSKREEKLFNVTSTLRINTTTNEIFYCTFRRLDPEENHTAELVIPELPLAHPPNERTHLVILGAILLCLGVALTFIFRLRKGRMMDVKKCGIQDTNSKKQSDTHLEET
Protocol: Real-time radioligand binding using the ligand tracer platform was performed, similar to our previously reported tracer candidates. As we aimed at reducing the albumin binding of the herein presented compounds, we performed measurements in the presence or absence of a mouse physiological concentration of BSA (2.5 g/dL).
For real-time binding to assess kinetics (association rate constant ka and dissociation rate constant kd) and dissociation constant (KD), LigandTracer (Yellow, Ridgeview Instruments AB, Sweden) was employed. Approximately 1.2 × 10^6 cells (in 3 mL medium) were seeded to one side of a Petri dish (Nunc) 1 day prior to experiments as described before.[45] Binding was then performed at room temperature (using CO2-independent medium, Gibco #18045088, Thermo Fisher Germany) with or without BSA (2.5%). First, association was determined by incubation with two concentrations (10 and 40 nM, 90 min each) of the ^64Cu-labeled PD-L1 ligands. Dissociation was then assessed by replacement with fresh medium for at least 2 h. Data were acquired in decay-corrected counts per second (CPS), and binding data were then evaluated using TraceDrawer (1.9.2, Ridgeview Instruments AB, Sweden). Traces were inspected for spikes and irregularities and then normalized to their own baseline (=0%) and highest value (=100%). Data were then fitted using a one-to-one interaction, accounting for the bulk effect.

[1] = Kinetic stability in PBS buffer (pH 7.4), radio-HPLC; format: physicochemical; conditions: room temperature; for intact radioligand in PBS (pH 7.4): radio-HPLC at 1, 24 and 48 h
Protocol: The kinetic stability of all ^64Cu-labeled ligands was investigated in PBS buffer solution (pH 7.4) by incubation at room temperature and monitoring with radio-HPLC up to 48 h. […] During the time course, no changes in peak number/shape and retention time were observed, proving the stability of the compounds. […] At the 48 h time point, however, a shoulder appears with a slightly higher retention time (∼7.0 min), indicating minor decomposition (>94% intact radiotracer).
The corresponding radiotracer was labeled with approximately 500 MBq of ^64Cu in 50 μL of HEPES solution (adjusted to pH 4.5), as described above. After successful labeling, 450 μL of PBS solution (pH 7.4) was added, and the incubation was performed (room temperature) at 300 rpm. At each time point (1, 24, and 48 h), an aliquot was withdrawn and injected into the radio-HPLC (PerkinElmer, Massachusetts, United States system C or D, Supporting Information). Evaluation and graphical plotting were performed with OriginPro 9.0.

[2] = test system: PC3 PD-L1-overexpressing tumor; assay: Small-animal PET, uptake in PD-L1-overexpressing tumor; conditions: for SUVmax PC3 PD-L1 overexpressing tumor: tracer only; for SUVmax PC3 PD-L1 overexpressing tumor +block: blocker i.v. before tracer: Cu-1 100 nmol 1, Cu-2 100 nmol 2, Cu-3 1000 nmol 4, Cu-4 500 nmol 4, Cu-6 250 nmol 1 (~5 min prior), Cu-5 100 nmol 5 (~30 min prior)
Protocol: Changes are reported as % change of the SUVmax of the PD-L1 expressing over the respective value of the mock tumor. Similarly, the effect of blocking is reported as % change of the SUVmax of the animal injected with cold compound over that of the animal that received tracer only.
Animal experiments were performed in accordance with the guidelines of the German Regulations for Animal Welfare, approved by the Saxonian Ethical Committee for Animal Experiments (reference number DD24.1-5131/449/49). Male athymic NMRI-nude mice (Rj: NMRI-Foxn1^nu/nu, Janvier Laboratories, Le Genest-Saint-Isle, France) between 8 and 22 weeks of age were used. Under general anesthesia, [∼10% desflurane (Baxter, Deerfield, IL, USA) in 30 vol % oxygen + air] and warming, the animals were subcutaneously injected with 3–5 × 10^6 PC3-PD-L1 and PC3-mock cells [in 50 μL PBS +50 μL Matrigel (Corning, Glendale, USA)] into the right and left thigh, respectively. Tumor growth was monitored three times a week by caliper measurements, and mice with tumor sizes above 7 mm were included in the experiments.
For PET studies, general anesthesia was induced as described above. PET and X-ray computed tomography (CT) were performed in a dedicated small animal nanoScan PET/CT scanner, with four animals imaged simultaneously (Mediso, Budapest, Hungary). CT images were employed for attenuation correction and anatomical referencing. Animals received three individual scans corresponding to 0–2 h (dynamic) and 4.5 and 24 h (static) postinjection.
PD-L1 radiotracer candidates (in 300 μL sterile 0.9% NaCl/HEPES buffer, pH 6–7, between 7 and 12 MBq, molar activities > 12 GBq/μmol) were delivered over 30 s i.v. (lateral tail vein) and PET acquisition started simultaneously. For blocking condition, a defined quantity of compound (the same unlabeled compound, one from the same series or BMS-1166) was diluted in sterile saline and injected i.v. approximately 5 min prior to the radiotracer. Animals not subjected to blocking were injected with vehicle at the same time.
Three-dimensional list mode data were binned using the 400–600 keV energy window and sorted into 36 time frames (15 × 10 s, 5 × 30 s, 5 × 60 s, 4 × 300 s, 3 × 600 s, 4 × 900 s). Time frames were reconstructed using the Tera-TomoTM 3D algorithm applying a voxel size of 0.4 mm and corrections for decay, scatter, and attenuation.
Three-dimensional volumes of interest were delineated applying fixed thresholding at 35% of the measured maximum intensity. Standardized uptake values (SUV = [MBq detected activity/mL tissue]/[MBq injected activity/g body weight], […]) were determined in selected volumes of interest, among these PD-L1 and mock tumors.
14. In vivo: PET- SUV data
Standardized uptake values (SUVmax)
Supplementary table 1: In vivo standardized uptake values (SUVmax ± standard deviation) of 64Cu-labeled third series compounds [64Cu]Cu-1-6 at 1.5 (1–2), 4.5 (4–5) and 24.5 (24–25) hours
post injection (p.i.). Compounds used for blocking are described for each tracer and were intravenously injected in sterile saline at stated time before the radiotracer. Animals designated for
tracer-only received matched type and volume of vehicle at the same time.

[3] = Radiotracer production data: stability of the product to in vivo experiments; format: physicochemical
[4] = medium only (no BSA), n = 2, mean ± S.D.
[5] = medium only (no BSA), n = 2, mean ± S.D., room temperature
[6] = 1–2 h (1.5 h) p.i., blocker: Cu-3 1000 nmol 4, Cu-4 500/1000 nmol 4, Cu-5 100 nmol 5, Cu-6 250 nmol BMS-1166
[7] = 4–5 h (4.5 h) p.i., blocker: Cu-3 1000 nmol 4, Cu-4 500/1000 nmol 4, Cu-5 100 nmol 5, Cu-6 250 nmol BMS-1166

SMILES | Bmax [normalized (%)] (PD-L1; medium + 2.5% BSA, n = 1) [%] | ka (association rate constant) (PD-L1; medium + 2.5% BSA, n = 1) [M/s] | Bmax [normalized (%)] (PD-L1; [4]) [%] | ka (association rate constant) (PD-L1; [5]) | Kd (PD-L1; medium + 2.5% BSA, n = 1) [nM] | Kd (PD-L1; [4]) | intact radioligand in PBS (pH 7.4) [1] [%] | blocking effect: % change of SUVmax in PD-L1 tumor vs tracer-only [2, 6] | % change of SUVmax of the PD-L1 expressing tumor over the mock tumor ([2]; 1–2 h p.i.) [%] | SUVmax PC3 PD-L1 overexpressing tumor ([2]; 1.5 (1–2) hours p.i.) | SUVmax PC3 PD-L1 overexpressing tumor +block ([2]; 1.5 (1–2) hours p.i.) | blocking effect: % change of SUVmax in PD-L1 tumor vs tracer-only [2, 7] | SUVmax PC3 PD-L1 overexpressing tumor ([2]; 4.5 (4–5) hours p.i.) | SUVmax PC3 PD-L1 overexpressing tumor +block ([2]; 4.5 (4–5) hours p.i.) | SUVmax PC3 PD-L1 overexpressing tumor ([2]; 24.5 (24–25) hours p.i.) | SUVmax PC3 PD-L1 overexpressing tumor +block ([2]; 24.5 (24–25) hours p.i.) | Stability of the product to in vivo experiments [3] [%] | fold change of real-time binding affinity in presence vs absence of BSA (PD-L1) [fold] | also measured
Cc1c(COc2cc(OCc3cncc(S(C)(=O)=O)c3)c(CN[C@@H](CS(=O)(=O)O)C(=O)NCCP(=O)(O)O)cc2Cl)cccc1-c1cccc(OCc2cn(CCCN3CCN(C(=O)CC[C@H](C(=O)O)N4CCN(CC(=O)O)CCN(CC(=O)O)CC4)CC3)nn2)c1C.[64Cu+2] [[^64Cu]Cu-4] | 883 | 230 | 846 ± 451 | (0.56 ± 0.35) × 10^3 (M s)^−1 | 744 | 201 ± 149 nM | > 99 | −57% | 146 | 1.97 ± 0.23 | 0.85 ± 0.05 | −13% and −12% | 1.2 ± 0.4 | 1.05 ± 0.35 | 2.0 ± 0.1 | 1.1 ± 0.1 | > 99 | – | % change of SUVmax of the PD-L1 expressing tumor over the mock tumor ([2]; 4–5 h p.i.): 166%; blocking effect: % change of SUVmax in PD-L1 tumor vs tracer-only ([2]; 24–25 h (24.5 h) p.i., blocker: Cu-1, Cu-2 100 nmol unlabeled compound, Cu-3 1000 nmol 4, Cu-4 500/1000 nmol 4, Cu-5 100 nmol 5, Cu-6 250 nmol BMS-1166): −45%; % change of SUVmax of the PD-L1 expressing tumor over the mock tumor ([2]; 24–25 h p.i.): 60%
Cc1c(COc2cc(OCc3cncc(C#N)c3)c(CN[C@@H](CS(=O)(=O)O)C(=O)NCCS(=O)(=O)O)cc2Cl)cccc1-c1cccc(OCc2cn(CCCN3CCN(C(=O)[C@H](CS(=O)(=O)O)NC(=O)CC[C@H](C(=O)O)N4CCN(CC(=O)O)CCN(CC(=O)O)CC4)CC3)nn2)c1C.[64Cu+2] [[^64Cu]Cu-1] | 76.2 | 1410 | 186 ± 40.2 | (2.85 ± 0.07) × 10^3 (M s)^−1 | 119 | 60 nM and 60.2 nM | – | – | – | 1–1.5 | 1.3 | – | 1.1 | 1.0 | 1.4 | 1.1 | > 99 | ≤ 2 | SUVmax PC3 PD-L1 overexpressing tumor ([2]; 1.5 (1–2) hours p.i., listed as [64Cu]Cu-1): 1.5
Cc1c(COc2cc(OCc3cncc(S(C)(=O)=O)c3)c(CN[C@@H](CS(=O)(=O)O)C(=O)NCCP(=O)(O)O)cc2Cl)cccc1-c1cccc(OCc2cn(CCCN3CCN(C(=O)[C@H](CP(=O)(O)O)NC(=O)CC[C@H](C(=O)O)N4CCN(CC(=O)O)CCN(CC(=O)O)CC4)CC3)nn2)c1C.[64Cu+2] [[^64Cu]Cu-6] | 65.3 | 3590 | 107 ± 7.16 | (5.30 ± 0.52) × 10^3 (M s)^−1 | 41.4 | 22 nM and 22.2 nM | > 99 | +25% | 121 | 1.83 ± 0.37 | 2.28 ± 0.46 | +16% | 1.55 ± 0.05 | 1.8 ± 0.3 | 2.2 ± 0.1 | 2.3 ± 0.4 | > 99 | ≤ 2 | intact radiotracer in PBS (pH 7.4) at 48 h ([1]; 48 h): > 94%; blocking effect of BMS-1166 on SUVmax / tumor uptake ([2]; any time point, Cu-3: 750 nmol BMS-1166 intraperitoneally 60 min prior, Cu-6: 250 nmol BMS-1166 5 min before): no blocking effect

— publication PMC10726354, “Design, Synthesis, and Biological Evaluation of Small-Molecule-Based Radioligands with Improved Pharmacokinetic Properties for Imaging of Programmed Death Ligand 1” (Journal of Medicinal Chemistry, 2023)
